This experiment concerns the target T1, EGFR LRCS (BaF3-LRCS cell line) (Homo sapiens, UniProt P00533, C797S/L858R).
T1 construct: host or cells: BaF3-LRCS cell line (kept under puromycin selection)
Nature of the experiment: HTRF Phospho EGFR LRCS assay (cellular). It is filed as cell-based. The following applies: BaF3-LRCS cells, 4 hours incubation, Phospho-EGFR HTRF readout. The protocol: HTRF Phospho EGFR LRCS assay (cellular)
BaF3-LRCS cell line were obtained from Crownbio (San Diego, CA, USA). Cells were maintained at 37° C., 5% C02 in RPMI ATCC (Gibco 31870)+2 mM Glutamine+0.5 μg/ml Puromycin supplemented with 10% fetal bovine serum (FBS) (Gibco).
Cells are transferred as above to Greiner Bio-One, Nr. 784-08 micro-titerplate at 20000 cells/well in 12.5 μl of growth medium/well after the plates had been pre-filled with 12.5 nl of DMSO solutions of the to be tested compounds (in dose response) or DMSO only. After spinning the plates at 300×g for 30 seconds the cells were incubated for 4 hours at 37 C, 5% CO2, 95% humidity. The cells were lysed by adding to the compound mix 4 µl/well of the supplemented lysis buffer (Cis-bio, Phospho-EGFR HTRF kit, 64EG1PEH), followed by incubation for 30 min at room temperature with shaking (400 rpm). The plates were then frozen and stored overnight at −80° C. On the next day and after thawing the plates, 4 μl of a mixture of anti-Phospho-EGFR Cryptate and of anti-Phospho-EGFR-d2 antibody solutions prepared in the supplied detection buffer was added to each well. The lidded plates were then incubated for 4 h at room temperature before reading the fluorescence emission at 616 and 665 nm using an Envision reader (Perkin Elmer). Data was analyzed in similar fashion as above using the normalized ratio of the 665 to 616 signals multiplied by 10000.
A general note: Time-resolved FRET reads energy transfer from a long-lived donor to a nearby acceptor.

The structures appear in SMILES notation.

T1 sequence (P00533 25-1210 C797S/L858R): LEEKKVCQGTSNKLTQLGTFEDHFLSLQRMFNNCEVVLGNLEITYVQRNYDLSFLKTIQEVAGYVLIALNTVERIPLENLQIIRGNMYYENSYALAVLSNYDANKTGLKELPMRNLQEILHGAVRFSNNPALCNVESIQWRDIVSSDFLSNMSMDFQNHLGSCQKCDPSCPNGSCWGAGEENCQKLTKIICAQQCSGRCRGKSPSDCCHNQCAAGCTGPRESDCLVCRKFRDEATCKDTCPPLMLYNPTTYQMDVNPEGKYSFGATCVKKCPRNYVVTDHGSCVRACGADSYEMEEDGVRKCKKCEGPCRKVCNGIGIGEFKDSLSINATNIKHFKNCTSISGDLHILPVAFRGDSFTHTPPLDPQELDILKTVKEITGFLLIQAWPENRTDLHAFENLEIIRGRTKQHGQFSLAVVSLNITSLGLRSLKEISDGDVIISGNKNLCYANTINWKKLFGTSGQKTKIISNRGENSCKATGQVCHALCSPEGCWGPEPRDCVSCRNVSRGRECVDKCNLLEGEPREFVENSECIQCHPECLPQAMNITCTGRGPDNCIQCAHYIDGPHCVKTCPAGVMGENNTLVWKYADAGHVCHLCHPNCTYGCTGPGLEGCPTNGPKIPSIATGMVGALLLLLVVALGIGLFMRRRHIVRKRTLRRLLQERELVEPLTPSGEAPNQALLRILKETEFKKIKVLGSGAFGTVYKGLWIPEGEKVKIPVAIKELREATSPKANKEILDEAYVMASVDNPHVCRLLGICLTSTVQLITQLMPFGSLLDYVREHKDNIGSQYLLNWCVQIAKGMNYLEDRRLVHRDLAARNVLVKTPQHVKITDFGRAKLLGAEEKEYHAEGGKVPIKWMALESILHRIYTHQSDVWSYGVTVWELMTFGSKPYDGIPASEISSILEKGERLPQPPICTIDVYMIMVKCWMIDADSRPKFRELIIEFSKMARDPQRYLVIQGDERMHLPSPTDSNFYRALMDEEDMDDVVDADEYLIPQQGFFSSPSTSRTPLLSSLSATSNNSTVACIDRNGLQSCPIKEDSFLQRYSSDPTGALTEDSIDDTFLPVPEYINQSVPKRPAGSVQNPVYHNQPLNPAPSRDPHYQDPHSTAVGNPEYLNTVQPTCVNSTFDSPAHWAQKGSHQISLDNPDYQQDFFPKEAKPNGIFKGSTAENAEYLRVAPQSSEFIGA

What is called IC50 is the concentration that inhibits the measured activity by half. As for `Cc1c(-c2ccc(N3CCOCC3)cc2)cc(C(F)F)c2cn(C(C(=O)Nc3nccs3)c3ncn4c3CCC43CC3)nc12` (stereo not drawn) [Example 1, 2-[4-(Difluoromethyl)-7-methyl-6-(4-morpholinophenyl)indazol-2-yl]-2-spiro[6,7-dihydropyrrolo[1,2-c]imidazole-5,1′-cyclopropane]-1-yl-N-thiazol-2-yl-acetamide], the IC50 was found to be 20 nM.
As for `Cc1c(-c2ccc(N3CCOCC3)cc2)cc(C(F)(F)F)c2cn(C(C(=O)Nc3nccs3)c3ncn4c3CCC43CC3)nc12` (stereo not drawn) [Example 2, 2-[7-Methyl-6-(4-morpholinophenyl)-4-(trifluoromethyl)indazol-2-yl]-2-spiro[6,7-dihydropyrrolo[1,2-c]imidazole-5,1′-cyclopropane]-1-yl-N-thiazol-2-yl-acetamide], the figure is 45 nM; as for `Cc1c(-c2ccc(N3CCOCC3)cc2)cc(C(F)(F)F)c2cn(C(C(=O)Nc3nccs3)c3ncn4c3CCC4(C)C)nc12` (stereo not drawn) [Example 3, 2-(5,5-Dimethyl-6,7-dihydropyrrolo[1,2-c]imidazol-1-yl)-2-[7-methyl-6-(4-morpholinophenyl)-4-(trifluoromethyl)indazol-2-yl]-N-thiazol-2-yl-acetamide], 45 nM.

The values above are taken from patent publication US20250313565A1, “NEW INDAZOLE DERIVATIVES” (Hoffmann-La Roche Inc., priority 2022, published 2025).
